# Laboratory results from patent US20250064844A1 (Emory University, priority 2020, published 2025).
# Where two headings read alike, the source gives them in different places.
# Experiments:
# [1] = cynomolgus monkey, in vivo, po; for AUC0->24h / CL / Cmax / Tmax / t1/2: 0.4 mmol/kg
# in vitro [2] = conditions: both, human, plasma
# in vitro [3] = conditions: male, CD-1, mouse, plasma
# in vitro [4] = conditions: monkey, plasma
# [5] = human, in vivo
# in vitro [6] = conditions: male, Sprague-Dawley, rat, plasma
# in vitro [7] = conditions: dog, plasma
# in vitro [8] = conditions: male, CD-1, mouse, microsomes, pH 7.4
# in vitro [9] = conditions: both, human, microsomes, pH 7.4
# in vivo = conditions: ICR (CD-1), mouse, 15 mg/kg
# in vitro [10] = conditions: monkey, microsomes, pH 7.4
smiles,measurement,setting,value
CC(C)C(=O)OC[C@H]1O[C@@H](n2ccc(NO)nc2=O)[C@H](O)[C@@H]1O [EIDD-2801],F*,[1]; female,~26%
same,F*,[1]; male,~22%
same,half-life at 1 μM,in vitro [2],63 min
same,AUC0−>t,HepG2 cells,360.3 pmol · h/M cells
same,Cmax,HepG2 cells,18.9 pmol/M Cells
same,half-life at 1 μM,in vitro [3],1 min
same,half-life at 1 μM,in vitro [4],24 min
same,hematological parameters,[5],no clinically significant changes in hematological parameters
same,AUC0−>t,Vero cells,1724 pmol · h/M cells
same,Cmax,Vero cells,121.2 pmol/M Cells
same,half-life at 1 μM,in vitro [6],1 min
same,AUC0−>t,CEM cells,85.3 pmol · h/M cells
same,Cmax,CEM cells,5.4 pmol/M Cells
same,half-life at 1 μM,in vitro [7],192 min
same,AUC0−>t,Huh-7 cells,1025 pmol · h/M cells
same,Cmax,Huh-7 cells,77.5 pmol/M Cells
CC(C)C(=O)OC[C@H]1O[C@@H](n2ccc(NO)nc2=O)[C@H](OC(=O)C(C)C)[C@@H]1OC(=O)C(C)C [EIDD-2800],F*,[1]; female,~16%
same,F*,[1]; male,~27%
same,half-life at 1 μM,in vitro [2],1 min
same,half-life at 1 μM,in vitro [3],1 min
same,half-life at 1 μM,in vitro [4],2 min
same,half-life,in vitro [8],< 1 min
CC(C)[C@H](N)C(=O)OC[C@H]1O[C@@H](n2ccc(NO)nc2=O)[C@H](O)[C@@H]1O [EIDD-2898],F*,[1]; female,~15%
same,AUC0->24h,[1]; female,26.9 ± 4.8 µM·h
same,CL,[1]; female,265 ± 53.3 mL/min/kg
same,Cmax,[1]; female,15.9 ± 8.1 µM
same,Tmax,[1]; female,78 ± 30 min
same,t1/2,[1]; female,33 ± 15 min
same,F*,[1]; male,~18%
same,AUC0->24h,[1]; male,26.1 ± 5.2 µM·h
same,CL,[1]; male,273 ± 51.7 mL/min/kg
same,Cmax,[1]; male,9.1 ± 2.7 µM
same,Tmax,[1]; male,138 ± 57.6 min
same,t1/2,[1]; male,31.8 ± 9.6 min
same,half-life at 1 μM,in vitro [2],198 min
same,half-life,in vitro [9],14 min
same,half-life at 1 μM,in vitro [3],144 min
same,AUC(0-inf),in vivo,8.23 µM·h
same,Cmax,in vivo,23.1 µM
same,Tmax,in vivo,4.8 min
same,half-life,in vivo,20.4 min
same,half-life at 1 μM,in vitro [4],138 min
same,half-life,in vitro [10],13 min
